Numbered stars: 1 amine (or outer) side, 2 acyl side, 3 side chain; on linkers, the order of the positions; unused ones are H or OH. Bridge positions count the residues as written; N and C are the ends. Square brackets hold non-standard residues; d marks the D form. Peptide text beside a SMILES is read from it. X4 = O=C([C@H](CCCCNCc1ccccc1)N[*:1])[*:2]; sY = N[C@@H](Cc1ccc(OS(=O)(=O)O)cc1)C(=O)O; X3 = O=C([C@H](CCNCc1ccccc1)N[*:1])[*:2]; X2 = O=C([C@H](CNCc1ccccc1)N[*:1])[*:2]; Dap = NC[C@H](N)C(=O)O; βAla = NCCC(=O)O
Molecular target: T1, Cholecystokinin receptor type A (Homo sapiens, UniProt P32238)
T1 sequence (P32238 whole entry): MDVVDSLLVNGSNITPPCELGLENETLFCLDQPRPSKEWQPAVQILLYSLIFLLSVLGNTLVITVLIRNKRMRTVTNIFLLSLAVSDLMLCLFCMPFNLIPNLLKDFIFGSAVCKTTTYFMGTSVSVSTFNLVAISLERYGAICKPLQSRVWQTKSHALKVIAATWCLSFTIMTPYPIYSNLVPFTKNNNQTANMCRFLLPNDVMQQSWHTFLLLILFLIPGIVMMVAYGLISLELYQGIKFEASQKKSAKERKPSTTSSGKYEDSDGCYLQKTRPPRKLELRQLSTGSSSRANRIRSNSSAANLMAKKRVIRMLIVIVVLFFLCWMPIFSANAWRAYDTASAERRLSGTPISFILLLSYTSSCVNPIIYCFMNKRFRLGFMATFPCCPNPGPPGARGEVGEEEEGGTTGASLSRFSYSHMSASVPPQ
Assay: Displacement of [111In]DTPA-Glu-Gly-[Tyr27(SO3H)]-CCK8 from human CCK1 receptor expressed in A431 cells
Type: cell-based, A-431
Details: not given

Row | SMILES | IC50
1 | CSCC[C@@H]1NC(=O)[C@H](Cc2c[nH]c3ccccc23)NC(=O)[C@@H](NC(=O)[C@H](CCSC)NC(=O)[C@H](Cc2ccc(OS(=O)(=O)O)cc2)NC(=O)[C@@H](N)CC(=O)O)CNC(=O)CNC(=O)[C@H](C)NC(=O)[C@H](CC(=O)O)NC1=O (H-D[sY]M[Dap]WMDAG; lactam 4-C) | 7.2 µM
2 | CSCC[C@@H]1NC(=O)[C@H](Cc2c[nH]c3ccccc23)NC(=O)[C@@H](NC(=O)[C@H](CCSC)NC(=O)[C@H](Cc2ccc(OS(=O)(=O)O)cc2)NC(=O)[C@@H](N)CC(=O)O)CNC(=O)[C@H](C)NC(=O)[C@H](Cc2ccccc2)NC(=O)[C@H](CC(=O)O)NC1=O (H-D[sY]M[Dap]WMDFA; lactam 4-C) | > 1000 µM
3 | CSCC[C@@H]1NC(=O)[C@H](Cc2c[nH]c3ccccc23)NC(=O)[C@@H](NC(=O)[C@H](CCSC)NC(=O)[C@H](Cc2ccc(OS(=O)(=O)O)cc2)NC(=O)[C@@H](N)CC(=O)O)CNC(=O)CNC(=O)[C@H](Cc2ccccc2)NC(=O)[C@H](CC(=O)O)NC1=O (H-D[sY]M[Dap]WMDFG; lactam 4-C) | 26.3 µM
4 | CSCC[C@@H]1NC(=O)[C@H](Cc2c[nH]c3ccccc23)NC(=O)[C@@H](NC(=O)[C@H](CCSC)NC(=O)[C@H](Cc2ccc(OS(=O)(=O)O)cc2)NC(=O)[C@@H](N)CC(=O)O)CNC(=O)[C@H](CCCCN)NC(=O)[C@H](Cc2ccccc2)NC(=O)[C@H](CC(=O)O)NC1=O (H-D[sY]M[Dap]WMDFK; lactam 4-C) | 15 µM
5 | CSCC[C@@H]1NC(=O)[C@H](Cc2c[nH]c3ccccc23)NC(=O)[C@@H](NC(=O)[C@H](CCSC)NC(=O)[C@H](Cc2ccc(OS(=O)(=O)O)cc2)NC(=O)[C@@H](N)CC(=O)O)CNC(=O)CCNC(=O)[C@H](Cc2ccccc2)NC(=O)[C@H](CC(=O)O)NC1=O (H-D[sY]M[Dap]WMDF[βAla]; lactam 4-C) | 26.7 µM
6 | CSCC[C@@H]1NC(=O)[C@H](Cc2c[nH]c3ccccc23)NC(=O)[C@@H](NC(=O)[C@H](CCSC)NC(=O)[C@H](Cc2ccc(OS(=O)(=O)O)cc2)NC(=O)[C@@H](N)CC(=O)O)CNC(=O)CNC(=O)[C@H](CNCc2ccccc2)NC(=O)[C@H](CC(=O)O)NC1=O (H-D[sY]M[Dap]WMD[X2]G; lactam 4-C) | 7.46 µM
7 | CSCC[C@@H]1NC(=O)[C@H](Cc2c[nH]c3ccccc23)NC(=O)[C@@H](NC(=O)[C@H](CCSC)NC(=O)[C@H](Cc2ccc(OS(=O)(=O)O)cc2)NC(=O)[C@@H](N)CC(=O)O)CNC(=O)CNC(=O)[C@H](CCNCc2ccccc2)NC(=O)[C@H](CC(=O)O)NC1=O (H-D[sY]M[Dap]WMD[X3]G; lactam 4-C) | 6.94 µM
8 | CSCC[C@@H]1NC(=O)[C@H](Cc2c[nH]c3ccccc23)NC(=O)[C@@H](NC(=O)[C@H](CCSC)NC(=O)[C@H](Cc2ccc(OS(=O)(=O)O)cc2)NC(=O)[C@@H](N)CC(=O)O)CNC(=O)CNC(=O)[C@H](CCCCNCc2ccccc2)NC(=O)[C@H](CC(=O)O)NC1=O (H-D[sY]M[Dap]WMD[X4]G; lactam 4-C) | 24.7 µM

Same assay, conditions: a-431

Row | SMILES | IC50
9 | CSCC[C@H](NC(=O)[C@H](Cc1ccc(O)cc1)NC(=O)[C@H](CC(=O)O)NC(=O)CNC(=O)CC[C@@H](C(=O)O)N(CCN(CC(=O)O)CC(=O)O)CCN(CC(=O)O)CC(=O)O)C(=O)NCC(=O)N[C@@H](Cc1c[nH]c2ccccc12)C(=O)N[C@@H](CCSC)C(=O)N[C@@H](CC(=O)O)C(=O)N[C@@H](Cc1ccccc1)C(N)=O | 0.032 µM

— ChEMBL document CHEMBL1149620, “Synthesis and biological evaluation of cyclic and branched peptide analogues as ligands for cholecystokinin type 1 receptor” (Bioorg Med Chem, 2007)
